Source: patent US20150166667A1, “METHODS AND COMPOSITIONS FOR TREATING CANCER” (RAMOT AT TEL-AVIV UNIVERSITY LTD., priority 2012, published 2015)

Legend:
p21 (WAF1/Cip1) = p21 (WAF1/Cip1) expression in Ha-Ras infected keratinocytes, Western blot; assay type: cell-based, mouse; details: control cells, TPA 100 nM for 24 hr, FIG. 10A
Experimental: Primary mouse keratinocytes derived from control and IR-KO mice were infected with Ha-Ras, and 24 hr later were treated with TPA [100 nM] or vehicle for 24 hr. Expression of p21 (WAF1/Cip1) was evaluated by Western blot analysis, using a polyclonal antibody. Localization of p21 in the cells was examined by staining for DAPI and p21 (WAF1/Cip1) and visualization using fluorescent microscopy.

[1] = test system: primary keratinocytes and fibroblasts; assay: 3D skin organotypic coculture, epidermal differentiation; assay type: cell-based, mice; details: for expression of K14 (marker of proliferating keratinocytes) / expression of the differentiation markers Keratin-1 and Loricrin: immunohistochemistry, 10^-6M insulin or 10^-7M IGF1, FIG. 3B
Experimental: Primary keratinocytes and fibroblasts were isolated from WT mice, and organotypic cocultures were plated. Immediately afterwards, 10^−6M insulin or 10^−7M IGF1 was added to the growth medium and maintained throughout the experiment. Coculture inserts were further processed; H&E staining of a tissue section is shown. The effects of insulin and IGF1 on differentiation of human keratinocytes were tested in a 3-dimensional organotypic skin co-culture. In this model system, primary murine or human keratinocytes were plated on top of a fibroblast-containing collagen gel dermal equivalent. Within a few days under proper growth conditions, the 3D-organotypic coculture became organized, mimicking the histological structure of the skin tissue in vivo, including the skin epidermal layers as well as keratin formation. By mimicking the natural tissue architecture, such conditions enable keratinocytes to recapitulate their tissue-specific differentiation program in vitro.

keratin 1 = assay: Keratin 1 assembly in differentiating skin cells (insoluble fraction, Western blot); assay type: cell-based, mice; details: cells induced to differentiate in presence of insulin or IGF1; FIG. 19
Experimental: Primary skin cells were isolated from the SIRKO and IR (lox/lox) control mice and grown in culture. On day 3, the calcium concentration in the growth medium was raised from 0.05 mM to 0.12 mM to induce differentiation, and the culture was further maintained. On day 6, cells were harvested. To evaluate the effects of IR inactivation on the state of keratin filaments, cell lysates were fractionated into a Triton X-100-soluble fraction, containing the elementary keratin units, and a Triton-insoluble fraction, containing the mature keratin filaments. Western blot analysis was carried out on these fractions to estimate the amount of K1 present in each fraction, using Actin content as a loading control. […] A representative experiment of 4 repeats is depicted in the figures.

[2] = test system: primary murine keratinocytes; assay: In vitro scratch closure assay, primary murine keratinocytes; assay type: cell-based
Experimental: (§1) Insulin and IGF1 treatment: Primary murine keratinocytes were grown for 6 days in culture. On the day of the experiment insulin (10^−6M) or IGF-1 (10^−7M) were added, after which a scratch was made by a micropipette tip (day 0). In some of the plates, proliferation was inhibited by adding 25 microgram/ml mitomycin C, 4 hours prior to culture wounding. In another set of experiments (E-F) insulin receptor was inactivated by siRNA in human HaCaT skin cells. The effects of insulin and IGF1 were measured as described above. In all experiments digital photos were taken at day 0 and 24 hours later (day 1), from which 20 randomly chosen photos were taken from each treatment group and further analyzed to determine the average remaining scratch width.
(§2) The effect of insulin on skin cell migration was assessed using an in vitro scratch closure assay. Keratinocytes were grown to confluency, were left untreated or were treated with insulin or IGF-1, in the absence (6A; top panel) or presence (6A; bottom panel) of mitomycin C. The cell layer was scratched by a tip, and the degree of closure was subsequently measured. The amount of migration of control cells in each group (with or without mitomycin C) was assigned the value 100%. The average of 4 separate experiments is depicted. […] Similar results were obtained in human HaCaT skin cells in which the insulin receptor was inactivated by siRNA.

human HaCaT skin cells = assay: In vitro scratch closure assay, HaCaT cells with IR inactivated by siRNA; assay type: cell-based; details: FIG. 6B
Experimental: as §1, §2

SCC Cal 27 cells = assay: Proliferation of SCC Cal 27 cells by thymidine incorporation; assay type: cell-based, human; details: serum starved cells, 24 hours; FIG. 15C
Experimental: SCC Cal 27 cells were grown in culture to 70% confluency. The cells were serum starved for 24 hours after which a blocking anti IR antibody (Thermo Scientific; Insulin Receptor (α-Subunit) Ab-3 (Clone 47-9); Cat. #MS-633-PABX) was added at the concentrations indicated, with or without insulin as indicated, and the cells were incubated further for 24 hours.
Left, center, and right bars are insulin, 10 nM, and 20 nM respectively. […] In each case, results were normalized to control groups. The P values for 10 nM and 20 nM are as follows: control vs 10 nM Ab: p=8.616 E-5; control vs 20 nM Ab: p=1.745 E-5; control vs 10 nM Ab+insulin: p=0.00072; control vs 20 nM Ab+insulin: p=0.00558.

Molecule | levels of p21, a marker of cellular senescence (p21 (WAF1/Cip1)) | expression of K14 (marker of proliferating keratinocytes) [1] | expression of the differentiation markers Keratin-1 and Loricrin [1] | assembly of K1 (keratin 1 in the insoluble fraction) (keratin 1) | epidermal differentiation by histological analysis ([1]; 10^-6M insulin or 10^-7M IGF1 in growth medium, FIG. 3A) | effect on scratch closure in presence of mitomycin C ([2]; 25 microgram/ml mitomycin C 4 hours prior to wounding, FIG. 6A bottom) | scratch closure ([2]; insulin 10^-6M, IGF-1 10^-7M, 24 hours, absence of mitomycin C, FIG. 6A top) | effect on scratch closure in IR-inactivated cells (human HaCaT skin cells) | SCC cancer cell proliferation with insulin alone (SCC Cal 27 cells)
CCCCCCCCCCCCCC(=O)O[C@@H]1[C@@H](C)[C@@]2(O)[C@@H](C=C(CO)C[C@]3(O)C(=O)C(C)=C[C@@H]23)[C@@H]2C(C)(C)[C@]12OC(C)=O [TPA, 12-O-tetradecanoylphorbol-13-acetate] | decreased levels of p21 | – | – | – | – | – | – | – | –
IGF1 | – | maintained abnormally in apical layers | delayed expression | opposite effect | – | – | – | – | –
insulin | – | more rapid disappearance | enhanced | enhanced assembly of K1 | supported epidermal differentiation | not eliminated | facilitated scratch closure more than IGF | eliminated by IR inactivation | increased the proliferation
